Assay results: patent US7829529B2, “Use of factor VIIa or a tissue factor antagonist for regulating gene expression and cell migration or chemotaxis” (Novo Nordisk Health Care A/G, priority 1999, dated 2010)
“Also recorded” adds a separate entry of the source. Starred links: 1 amine or outer side, 2 acyl side, 3 side chain; linkers in the order of their positions; H or OH if unused. Positions of bridges follow the written chain, without caps; N, C: chain ends. Non-standard residues stand in square brackets, D forms with d. Residues, ends and D or L forms follow the SMILES beside them. Chains are numbered I, II in the order given. Actinocin(9to1) = Cc1c2oc3c(C)ccc(C(=O)[*:1])c3nc-2c(C(=O)[*:2])c(N)c1=O; NMeV = CN[C@H](C(=O)O)C(C)C; Sar = CNCC(=O)O

Assays:
[1] = test system: Human foreskin fibroblasts AG1523; assay: Chemotaxis assay, leading front technique in modified Boyden chamber, towards PDGF-BB; assay type: cell-based; details: for effect on FVIIa/TF-mediated chemotactic response to PDGF-BB: 30 min pretreatment; for effect on enhanced migration response (hyperchemotaxis) transduced by FVIIa/TF: TAP 0.2-10 μM, Hirudin 5 U/ml; for effect on migration of fibroblasts in response to PDGF without FVIIa: no FVIIa present
Experimental: Fibroblasts expressing active TF (FIG. 1A and FIG. 1B) were incubated with 100 nM of FVIIa and seeded in the upper part of the modified Boyden chamber; while media containing 10% FBS and PDGF-BB at different concentrations were added below the 150 μm micropore filter. The migration of the cells under conditions where medium containing 10% FBS without PDGF-BB was added below the filter was used as a measure of random migration, and calculated as 100% migration. A significant migration response was recorded at a concentration of 0.01 ng/ml PDGF-BB in cells stimulated by FVIIa compared to 1 ng/ml PDGF-BB for cells not ligated with FVIIa, i.e. a 100-fold difference in concentration (FIG. 2). At 0.01-0.1 ng/ml PDGF-BB the migration response to FVIIa increased dose dependently, starting at 25 nM and with a maximal effect at 50-100 nM FVIIa (FIG. 3A-D). […] To test whether the proteolytically active FVIIa was mandatory for the hyperchemotactic response to PDGF-BB, fibroblasts were also incubated with 100 nM FFR-FVIIa and assayed in the Boyden chamber in the same way (FIG. 2).
An irrelevant monoclonal IgG antibody did neither prevent hyperchemotaxis induced by FVIIa nor the inhibition of the migration response induced by FFR-FVIIa (data not shown).
Chemotaxis assay. The migration response of fibroblasts was assayed by means of the leading front technique in a modified Boyden chamber, as previously described (Siegbahn, A., Hanimacher, A., Westermark, B., Heldin, C-H. Differential effects of the various isoforms of platelet-derived growth factor on chemotaxis of fibroblasts, monocytes, and granulocytes. J. Clin. Invest. 85, 916-920 (1990) and Nistér, M., Hammacher, A., Mellström, K., Siegbahn, A., Rönnstrand, L., Westermark, B., Heldin, C-H. A glioma-derived PDGF A chain homodimer has different functional activities from a PDGF AB heterodimer purified from human platelets. Cell 52, 791-799 (1988)). Micropore filters (pore size 8 μm) were coated with a solution of type-1 collagen at room temperature over night. The filters were air dried for 30 minutes immediately before use. Human foreskin fibroblasts AG1523, were grown to confluence in Eagle's MEM supplemented with 10% FBS. The cells were detached by trypsinization (2.5 mg/ml for 10 minutes at 37° C.) and suspended in Eagle's MEM with 10% FBS. The fibroblasts were incubated for 10 minutes with or without FVIIa or FFR-FVIIa before assay. One hundred microliters of the cell suspension (2×10^5 cells/ml) was added above the filter of the Boyden chamber. PDGF-BB was diluted in assay media (Eagle's MEM with 10% FBS) and added below the filter in the chamber. The cells were incubated for 6 hours at 37° C. in a humidified chamber containing 95% air/5% CO2. FVIIa or FFR-FVIIa were present during the entire experiment. The filters were then removed, fixed in ethanol, stained with Mayer's Hemalun, and mounted. Migration was measured as the distance of the two furthest migrating fibroblast nuclei of one high-power field (12.5×24) in focus. The migration distance in each filter was calculated as the mean of the readings of at least three different parts of the filter. Experiments were performed with two to four separate filters for each concentration of chemoattractant. For each set of experiments, the migration of fibroblasts toward the assay media served as control.
In cases when anti-TF monoclonal antibodies or inhibitors to coagulation factors, TAP and Hirudin, were used, cells were preincubated for 10 minutes with these agents, then with or without FVIIa or FFR-FVIIa before the chemotaxis assay was performed. Antibodies, TAP or Hirudin were also present during the entire chemotaxis experiment. In experiments where the effects on the migration response of different inhibitors, LY294002, U73122 or U73343, were tested, cells were preincubated for 30 minutes with the inhibitors at indicated concentrations, and the inhibitors were also present throughout the experiments.

[2] = test system: Cyr61 mRNA in WI-38 cells; assay: Northern blot analysis of Cyr61 expression; assay type: cell-based, human; details: for effect on VIIa-induced expression of Cyr61: 30 min preincubation, then VIIa 5 μg/ml 45 min, TAP 200 nM, actinomycin D and cycloheximide 10 μg/ml
Experimental: Northern Blot Analysis. Total RNA was prepared using TRIZOL reagent from quiescent monolayer of WI-38 cells that were exposed to VIIa and other materials as described in Results. Northern blot analysis was carried out using standard procedure. Briefly, 10 μg of total RNA was size fractionated by gel electrophoresis in 1% agarose/6% formaldehyde gels and transferred onto the nitrocellulose membrane by a capillary blot method. Northern blots were prehybridized at 42° C. with a solution containing 50% formamide, 5×SSC, 50 mM Tris.HCl, pH 7.5, 0.1% sodium pyrophosphate, 1% SDS, 1% polyvinylpyrrolidone, 1% Ficoll, 25 mM EDTA, 100 μg/ml denatured salmon sperm DNA and 1% BSA and hybridized with ^32P-labeled Cyr61 cDNA probe (106 cpm/ml). The hybridized membranes were exposed to either Dupont NEF or Fuji RX X-ray film. For quantification purposes, the membranes were exposed to phosphor screen for 1 to 4 h, and the exposed screens were analyzed in a Phosphorlmger (Molecular Dynamics) using “Image-quant” software. To obtain mean values, the units (counts) obtained from different experiments were normalized to an internal control (counts present in control-treated sample).
Confirmation of differential expression of Cyr61. To validate the data obtained in microarray, we have patiented the RNA samples from the control and VIIa-treated cells (the same RNA samples that have been used to prepare poly (A) RNA for probe generation in the microarray) to Northern blot analysis and probed with radiolabeled Cyr61 cDNA. […] However, the intensity of hybridization signal was much higher in RNA isolated from VIIa-treated cells (FIG. 11).
Kinetics of Vila-induced expression of Cyr61. To determine the kinetics of Cyr61 expression, quiescent fibroblasts were treated for varying time periods with 5 μg/ml VIIa. Total RNA was extracted and patiented to Northern blot analysis. […] The expression was peaked at about 45 min and thereafter declined to the base level in 2 to 3 h. Since it had been reported that expression of Cyr61 in mouse fibroblasts after stimulation with serum and growth factor was sustained for several hours (up to 8 to 10 h) before repression occurs, we have examined the effect of serum and PDGF on kinetics of Cyr61 expression in quiescent human fibroblasts, WI-38. […] Similar results obtained with serum-induced expression of Cyr61 (data not shown).
Factor VIIa-dose dependent induced expression of Cyr61. To determine dose-dependency of VIIa, quiescent fibroblasts were treated with varying doses FVIIa (0.1 to 5 μg/ml) for 45 min and then total RNA samples from the cells were patiented to Northern blot analysis.
Factor VIIa-catalytic activity is required for Cyr61 induction. To test whether VIIa catalytic activity is required for the induction of Cyr61, WI-38 cells were treated with VIIa and active-site inactivated FVIIa (FVIIai) for 45 min and the expression of Cyr61 was evaluated by Northern blot analysis. […] It is unlikely that VIIa-induced expression of Cyr61 in our experiments was the result of generation of down-stream coagulation factors, FXa and thrombin.
Involvement of transcriptional mechanism for the induction of Cyr61 mMRNA steady-state levels by VIIa. To investigate whether transcription is involved in VIIa-mediated increase in Cyr61 mRNA steady-state levels, quiescent WI-38 cells were incubated with actinomycin-D (10 μg/ml) for 30 min before the addition of VIIa for 45 min. […] This finding indicates a transcriptional mechanism for induction of Cyr61.
To investigate whether de novo protein synthesis is required for the induction of Cyr61 nRNA by VIIa, WI-38 cells were pretreated with the protein synthesis inhibitor cycloheximide before the cells were exposed to VIIa for 45 min.

[3] = test system: PLC-γ1 in AG1518 fibroblasts; assay: Assay for agonist-induced PLC-γ1 tyrosine phosphorylation; assay type: cell-based, human; details: 100 nM FVIIa or FFR-FVIIa one hour; PDGF-BB 2, 10 or 100 ng/ml 5 minutes
Experimental: In order to determine whether the PLC-γ1 isoform, which is activated by certain tyrosine kinase receptors, was responsible for the increased PLC activity induced by FVIIa/TF, tyrosine phosphorylation of PLC-γ1 was studied. Fibroblasts were incubated in the absence or presence of 100 nM FVIIa or FFR-FVIIa for one hour, followed by the stimulation with 0, 2, 10 or 100 ng/ml PDGF-BB. After 5 minutes of incubation, the cells were lysed and PLC-γ1 was immunoprecipitated, separated by SDS-PAGE and immunoblotted with antiphosphotyrosine antibodies. […] Thus, other PLC isoforms than PLC-γ1 are responsible for the increased PLC activity after FVIIa stimulation.
Assay for agonist-induced PLC-γ1 phosphorylation. Semi-confluent cultures of AG1518 were serum starved overnight (approx. 20 hours) in medium containing 0.1% FBS, and then incubated in the absence or presence of 100 nM FVIIa or FFR-FVIIa for one hour followed by incubation with 0, 2, 10 or 100 ng/ml PDGF-BB for 5 minutes at 37° C. […]

[4] = 100 nM FVIIa, 0.1 ng/ml PDGF-BB

COc1ccc2c(c1)CC[C@@H]1[C@@H]2CC[C@]2(C)[C@@H](NCCCCCCN3C(=O)C=CC3=O)CC[C@@H]12 [U73122]
concentration giving total inhibition of the hyperchemotactic response [1, 4]: 1 µM | effect on FVIIa/TF-mediated chemotactic response to PDGF-BB [1, 4]: inhibited the hyperchemotacic response to 0.1 ng/ml PDGF-BB in a dose-dependent way

COc1ccc2c(c1)CC[C@@H]1[C@@H]2CC[C@]2(C)[C@@H](NCCCCCCN3C(=O)CCC3=O)CC[C@@H]12 [U73343]
effect on FVIIa/TF-mediated chemotactic response to PDGF-BB [1, 4]: No effect on chemotaxis

Cc1c2oc3c(C)ccc(C(=O)N[C@@H]4C(=O)N[C@H](C(C)C)C(=O)N5CCC[C@H]5C(=O)N(C)CC(=O)N(C)[C@@H](C(C)C)C(=O)O[C@@H]4C)c3nc-2c(C(=O)N[C@@H]2C(=O)N[C@H](C(C)C)C(=O)N3CCC[C@H]3C(=O)N(C)CC(=O)N(C)[C@@H](C(C)C)C(=O)O[C@@H]2C)c(N)c1=O [actinomycin-D] (I: T[dV]P[Sar][NMeV] / II: T[dV]P[Sar][NMeV]; ester I:1-I:C, II:1-II:C; linker I:N-II:N via Actinocin(9to1))
effect on VIIa-induced expression of Cyr61 [2]: inhibited the stimulator effect of VIIa

C[C@@H]1C[C@@H]([C@H](O)CC2CC(=O)NC(=O)C2)C(=O)[C@@H](C)C1 [cycloheximide]
effect on VIIa-induced expression of Cyr61 [2]: not blocked; also recorded: markedly increased the VIIa-induced Cyr61 mRNA steady-state levels

Hirudin
effect on enhanced migration response (hyperchemotaxis) transduced by FVIIa/TF ([1]; 100 nM FVIIa): Neither addition of 5 U/ml Hirudin, a specific thrombin inhibitor, had any effect | effect on migration of fibroblasts in response to PDGF without FVIIa [1]: did not influence | effect on VIIa-induced expression of Cyr61 [2]: failed to abolish

TAP: Recombinant Tick anticoagulant peptide, specifically blocks the active site of FXa (YNRLCIKPRDWIDECDSNEGGERAYFRNGKGGCDSFWICPEDHTGADYYSSYRDCFNACI; UniProt P17726 1-60, looked up)
effect on enhanced migration response (hyperchemotaxis) transduced by FVIIa/TF ([1]; 100 nM FVIIa): not blocked | effect on migration of fibroblasts in response to PDGF without FVIIa [1]: did not influence | effect on VIIa-induced expression of Cyr61 [2]: failed to abolish

thrombin
induction of Cyr61 expression (data not shown) ([2]; conditions not given): could also induce the expression of Cyr61

B1: PDGF-BB: platelet-derived growth factor BB, chemotactic factor for human fibroblasts (protein, UniProt P01127 82-190, looked up)
Platelet-derived growth …: SLGSLTIAEPAMIAECKTRTEVFEISRRLIDRTNANFLVWPPCVEVQRCSGCCNNRNVQCRPTQVQLRPVQVRKIEIVRKKPIFKKATVTLEDHLACKCETVAAARPVT
tyrosine phosphorylation of PLC-γ1, agent alone [3]: significant increase in tyrosine phosphorylation of PLC-γ1 | kinetics of Cyr61 expression upon stimulation ([2]; PDGF-BB 10 ng/ml): expressed only transiently | time to full repression of Cyr61 after addition of stimuli ([2]; PDGF-BB 10 ng/ml): 2 h
